Test [1] relates to gray mold pathogen (Botrytis cinerea). Put plainly: Gray mold antimicrobial test (growth inhibition rate). It counts as cell-based. Also on record: growth inhibition rate, component (II) alone: concentration or dose not given beside the values. As to the method:
(Test Example) Gray Mold Antimicrobial Test (Growth Inhibition Rate)
Conidiospores of a gray mold pathogen (Botrytis cinerea) were added to and dispersed in a yeast extract sucrose medium, and a component (I) and a component (II) dissolved in dimethyl sulfoxide at predetermined concentrations were further added and mixed thereto, and the resulting solution was dispensed onto a 96-well microplate and cultivated in the dark at 20° C. for 3 to 5 days. After the cultivation, the turbidity at a wavelength of 405 nm was measured by a microplate reader and compared with that in the untreated case to determine the growth inhibition rate (%) for the gray mold pathogen. The test was duplicately carried out. The results are shown in Tables 3 to 7 together with expected values calculated as follows.
Expected values were calculated by using Colby's equation: E=M+N−MN/100. Here, E denotes an expected value (%) of a growth inhibition rate, M denotes a growth inhibition rate (%) in using a component (I) alone, and N denotes a growth inhibition rate (%) in using a component (II) alone.
If the actually measured growth inhibition rate (%) of a composition of a component (I) and a component (II) is higher than the expected value, E, the composition of a component (I) and a component (II) is said to have exerted synergistic effect.

Test [2] relates to cucumber powdery mildew pathogen (Sphaerotheca fuliginea). The test is described as follows: Cucumber powdery mildew control test. In kind it is in vivo. The conditions noted are these: for control value: sprayed onto cucumber seedlings. Details: scale not given here. The text has this:
(Test Example) Cucumber Powdery Mildew Control Test 1) Preparation of Drug Solution for Test […] The other components (II) were each formulated into an aqueous solution or suspension having a predetermined concentration. 2) Test A mixed solution of a component (I) and a component (II) at a predetermined concentration was sprayed onto cucumber seedlings (variety: “Shimo-shirazu, creeping type”, cotyledon stage). After natural drying at room temperature, conidiospores of a cucumber powdery mildew pathogen (Sphaerotheca fuliginea) were inoculated by blushing off, and the seedlings were kept in a thermostatic room at 20° C. using a 12 hour light/dark cycle for 7 to 10 days. The states of lesion development on leaves were examined by comparing with that for the untreated case, and the control values were determined. The test was duplicately carried out. The results are shown in Tables 8 to 12 together with expected values calculated as follows. Expected values were calculated by using Colby's equation: […] Here, E denotes an expected value of a control value, M denotes a control value in using a component (I) alone, and N denotes a control value in using a component (II) alone. If the actually measured control value of a composition of a component (I) and a component (II) is higher than the expected value, E, the composition of a component (I) and a component (II) is said to have exerted synergistic effect.

On to `COc1ccc(F)cc1C(O)Cn1cc(/C(C)=N/OC(C)C)c(=O)n(C[C@H](C)NC(=O)C(C)C)c1=O` (stereo partly drawn) [Compound 3, N-((2S)-1-(3-(2-(5-fluoro-2-methoxyphenyl)-2-hydroxyethyl)-5-((E)-1-(isopropoxyimino)ethyl)-2,6-dioxo-3,6-dihydropyrimidin-1(2H)-yl)propan-2-yl)isobutyramide], for which the growth inhibition rate in test [1] (Table 5, Examination 1, Compound 3 (0.25 or 0.063 ppm) alone or mixed with component (II)) was determined as 74%; in test [1] (Table 5, Examination 2, Compound 3 (0.25 or 0.063 ppm) alone or mixed with component (II)) it was 63%; in test [1] (Table 5, Examination 3, Compound 3 (0.25 or 0.063 ppm) alone or mixed with component (II)) it was 48%; in test [1] (Table 5, Examination 4, Compound 3 (0.25 or 0.063 ppm) alone or mixed with component (II)), 14%. The control value in test [2] (Table 10, Examination 1, Compound 3 0.4 ppm alone or mixed with component (II)) was found to be 72; in test [2] (Table 10, Examination 2, Compound 3 0.4 ppm alone or mixed with component (II)), 68; in test [2] (Table 10, Examination 3, Compound 3 0.4 ppm alone or mixed with component (II)), 56; in test [2] (Table 10, Examination 4, Compound 3 0.4 ppm alone or mixed with component (II)), 61; in test [2] (Table 10, Examination 5, Compound 3 0.4 ppm alone or mixed with component (II)), 34; in test [2] (Table 10, Examination 6, Compound 3 0.4 ppm alone or mixed with component (II)) it was 67. In addition, the control value in test [2] (Table 10, Examination 7, Compound 3 0.4 ppm alone or mixed with component (II)) is recorded as 67.

For `Cc1nc2c(F)c(F)ccc2cc1Oc1cccc(F)c1C(C)(C)O` [Ipflufenoquin], the “growth inhibition rate, component (II) alone” value amounted to 4% in test [1] (Table 3, ppm: Ipflufenoquin 10, Cyflufenamid 10, Thiophamate-methyl 0.4, Iminoctadine acetate 0.08, Iminoctadine albesilate 0.08, Triflumizole 0.0032, Picarbutrazox 0.08, Prothioconazole 0.0032, Mefentrifluconazole 0.00064, Cymoxanil 10, Fludioxonil 0.016, Metyltetraprole 0.4, Florylpicoxamid 0.08, Fluxapyroxad 0.08, Fluopyram 0.4, Potassium phosphite 10, Fipronil 2, Chlorantraniliprole 0.016, Aba); 4% in test [1] (Table 4, ppm: Ipflufenoquin 10, Cyflufenamid 2, Thiophamate-methyl 0.4, Iminoctadine acetate 0.08, Iminoctadine albesilate 0.4, Picarbutrazox 10, Prothioconazole 0.0032, Mefentrifluconazole 0.0006, Cymoxanil 10, Fludioxonil 0.016, Metyltetraprole 10, Fluxapyroxad 0.016, Fluopyram 0.4, Potassium phosphite 10, Fipronil 2, Chlorantraniliprole 0.016, Abamectin 0.016, Sulfoxaflor 10, Tebufenozide 0.016); 4% in test [1] (Table 5, ppm: Ipflufenoquin 10, Cyflufenamid 10, Thiophamate-methyl 0.4, Iminoctadine albesilate 0.4, Picarbutrazox 0.0032, Mefentrifluconazole 0.0006, Cymoxanil 10, Captan 0.0032, Fludioxonil 0.016, Metyltetraprole 10, Florylpicoxamid 0.0001, Fluxapyroxad 0.016, Fluopyram 0.0032, Potassium phosphite 0.08, Fipronil 2, Chlorantraniliprole 0.016, Abamectin 0.4, Sulfoxaflor 0.4, Tebufenozide 10); 4% in test [1] (Table 6, ppm: Ipflufenoquin 10, Cyflufenamid 0.08, Thiophamate-methyl 2, Triflumizole 0.08, Picarbutrazox 0.0016, Prothioconazole 0.0006, Mefentrifluconazole 0.08, Cymoxanil 0.08, Captan 0.08, Fludioxonil 0.016, Metyltetraprole 10, Florylpicoxamid 0.0006, Fluxapyroxad 0.0032, Fluopyram 0.016, Potassium phosphite 0.016, Fipronil 10, Chlorantraniliprole 0.08, Abamectin 2, Sulfoxaflor 0.08, Tebufenoz); 0% in test [1] (Table 7, ppm: Ipflufenoquin 0.08, Cyflufenamid 0.08, Thiophamate-methyl 2, Iminoctadine acetate 0.0001, Iminoctadine albesilate 0.4, Triflumizole 0.4, Prothioconazole 0.0032, Mefentrifluconazole 0.08, Cymoxanil 0.08, Captan 0.08, Fludioxonil 0.08, Metyltetraprole 0.0032, Florylpicoxamid 0.0006, Fluxapyroxad 0.016, Fluopyram 0.0032, Potassium phosphite 0.016, Fipronil 2, Chlorantraniliprole 0.016). Also, the “control value, component (II) alone” value in test [2] (Table 8, ppm or dilution rate: Thiophanate-methyl 1.6, Triflumizole 25, Cyflufenamid 1.6, Iminoctadine acetate 0.25, Iminoctadine albesilate 1, Picarbutrazox 2000, Ipflufenoquin 1, Bacillus subtilis ×250, Pseudomonas rhodesiae ×2000, Sodium hydrogen carbonate 250, Potassium bicarbonate 250, Orange oil 4000, Linalool 4000, Thymol 100, Neem oil 2000, Prothioconazole 1.6, Mancozeb 63, Mineral oil 500) is 27; in test [2] (Table 9, ppm or dilution rate: Thiophanate-methyl 1.6, Triflumizole 25, Cyflufenamid 1.6, Iminoctadine acetate 0.25, Iminoctadine albesilate 1, Picarbutrazox 2000, Ipflufenoquin 1, Bacillus subtilis ×250, Pseudomonas rhodesiae ×2000, Sodium hydrogen carbonate 250, Potassium bicarbonate 250, Orange oil 1000, Linalool 4000, Thymol 100, Neem oil 2000, Prothioconazole 1.6, Mancozeb 63, Mineral oil 500), 27; in test [2] (Table 10, ppm or dilution rate: Thiophanate-methyl 1.6, Triflumizole 25, Cyflufenamid 1.6, Iminoctadine acetate 0.25, Iminoctadine albesilate 1, Picarbutrazox 2000, Ipflufenoquin 1, Bacillus subtilis ×1000, Pseudomonas rhodesiae ×2000, Sodium hydrogen carbonate 250, Potassium bicarbonate 250, Orange oil 1000, Linalool 4000, Thymol 100, Neem oil 2000, Prothioconazole 1.6, Mancozeb 63, Mineral oil 5) it was 27; in test [2] (Table 11, ppm or dilution rate: Thiophanate-methyl 1.6, Triflumizole 25, Cyflufenamid 1.6, Iminoctadine acetate 1, Iminoctadine albesilate 1, Picarbutrazox 2000, Ipflufenoquin 1, Bacillus subtilis ×1000, Pseudomonas rhodesiae ×2000, Sodium hydrogen carbonate 250, Potassium bicarbonate 250, Orange oil 1000, Linalool 4000, Thymol 100, Neem oil 2000, Prothioconazole 1.6, Mancozeb 63, Mineral oil 500), 27; in test [2] (Table 12, ppm or dilution rate: Thiophanate-methyl 1.6, Triflumizole 25, Cyflufenamid 1.6, Iminoctadine acetate 0.25, Iminoctadine albesilate 1, Picarbutrazox 2000, Ipflufenoquin 1, Bacillus subtilis ×1000, Pseudomonas rhodesiae ×2000, Sodium hydrogen carbonate 1000, Potassium bicarbonate 250, Orange oil 1000, Linalool 4000, Thymol 400, Neem oil 2000, Prothioconazole 1.6, Mancozeb 63, Mineral oil) it was 27.

Turning to `COc1ccc(F)cc1C(O)Cn1cc(/C(C)=N/OC(C)C)c(=O)n(C[C@@H](NC(=O)C(C)C)C(C)C)c1=O` (stereo partly shown) [Compound 1], the growth inhibition rate in test [1] (Table 3, Examination 2, Compound 1 (0.25 or 0.063 ppm) alone or mixed with component (II)) worked out at 52%; in test [1] (Table 3, Examination 4, Compound 1 (0.25 or 0.063 ppm) alone or mixed with component (II)) it was 31%. In addition, the control value is 78 in test [2] (Table 8, Examination 1, Compound 1 0.4 ppm alone or mixed with component (II)); 64 in test [2] (Table 8, Examination 2, Compound 1 0.4 ppm alone or mixed with component (II)); 67 in test [2] (Table 8, Examination 3, Compound 1 0.4 ppm alone or mixed with component (II)); 83 in test [2] (Table 8, Examination 4, Compound 1 0.4 ppm alone or mixed with component (II)); 75 in test [2] (Table 8, Examination 5, Compound 1 0.4 ppm alone or mixed with component (II)); 67 in test [2] (Table 8, Examination 6, Compound 1 0.4 ppm alone or mixed with component (II)).

As to `COc1ccc(F)cc1C(O)Cn1cc(/C(C)=N/OC(C)C)c(=O)n(C[C@@H](NC(=O)C(C)(C)C)C(C)C)c1=O` (stereo partly shown) [Compound 2], the growth inhibition rate in test [1] (Table 4, Examination 1, Compound 2 (0.25 or 0.063 ppm) alone or mixed with component (II)) turned out to be 69%; in test [1] (Table 4, Examination 2, Compound 2 (0.25 or 0.063 ppm) alone or mixed with component (II)), 53%; in test [1] (Table 4, Examination 3, Compound 2 (0.25 or 0.063 ppm) alone or mixed with component (II)) it was 46%; in test [1] (Table 4, Examination 4, Compound 2 (0.25 or 0.063 ppm) alone or mixed with component (II)), 41%; in test [1] (Table 4, Examination 5, Compound 2 (0.25 or 0.063 ppm) alone or mixed with component (II)), 35%. For the same molecule, the control value in test [2] (Table 9, Examination 1, Compound 2 0.4 ppm alone or mixed with component (II)) was 67; in test [2] (Table 9, Examination 2, Compound 2 0.4 ppm alone or mixed with component (II)), 71; in test [2] (Table 9, Examination 3, Compound 2 0.4 ppm alone or mixed with component (II)), 67; in test [2] (Table 9, Examination 4, Compound 2 0.4 ppm alone or mixed with component (II)), 67; in test [2] (Table 9, Examination 5, Compound 2 0.4 ppm alone or mixed with component (II)), 59; in test [2] (Table 9, Examination 6, Compound 2 0.4 ppm alone or mixed with component (II)), 67.

The values are drawn from US20240260575A1, “AGRICULTURAL AND HORTICULTURAL FUNGICIDAL COMPOSITION” (Nippon Soda Co., Ltd., priority 2021, published 2024).
